“Also recorded” adds a separate entry of the source.
Key:
lysates of Mtb = experiment: Hydrolysis of substrate in Mtb lysates; type: biochemical, Mycobacterium tuberculosis
DopE10A = DopE10A (Mycobacterium tuberculosis, UniProt P9WNU9, E10A)

## MAQEQTKRGGGGGDDDDIAGSTAAGQERREKLTEETDDLLDEIDDV LEENAEDFVRAYVQKGG-Glu(AMC) [1a]
Lysates of Mtb
  hydrolysis of substrate in lysate: hydrolysis; also recorded: could not hydrolyze
DopE10A
  activity of DopE10A on the substrate: no activity

Reference: US9206241B2, “Modified prokaryotic ubiquitin-like protein and methods of use thereof” (priority 2012, dated 2015)
